# Measured values as given in US12161636B2, “Method of increasing lifespan in mammals” (priority 2023, dated 2024).
# Several values for one entry are separate records, joined by “and”; a condition that tells them apart may be missing. Equal entries are not always repeated. Entries after “also recorded” stand apart in the source; their conditions may differ.
# Experiments:
# client-owned dogs = test: Randomized, masked, placebo-controlled field pilot study on aging biomarkers (Example 6); type: in vivo, dog
# Source text: The effects of Pioglitazone aging biomarkers in client-owned dogs can be determined. Approximately 60 dogs are enrolled and randomized into two groups at a 3:1 ratio of treatment to control. Dogs can be screened on visit 1, which is 7 days before the study, and complete screening on visit 2, Day 0 of the study. The treatment can be randomized with dosing beginning on Day 0. The study has participant dogs enrolled for approximately 3 months, with evaluation visits about every 30 days for biomarker measurements and safety evaluations. The HRQL, CFI, insulin, and FFA blood levels are measured.
# Fasting insulin. Dogs should be fasted for 12 hours before blood draw for fasting insulin. If the dog is not fasted before the blood collection, the Protocol Deviation: Subject Level eCRF must be completed.
# The study will be a multi-site, field pilot study. The design is a randomized, masked, placebo-controlled study in client-owned dogs. The study will contain two treatment groups randomized at a 3:1 ratio in Table 10 below.
# The study will enroll an estimated 60 dogs across all study sites. Approximately 45 dogs will be treated with IVP, and approximately 15 dogs will be treated with CP. Additional dogs may be enrolled if initial attrition rates exceed the anticipated level. Likewise, fewer dogs may be enrolled if the study ends before full enrollment.
# Drug Administration. IVP/CP will be administered by the Owner to the subject once daily starting at study visit 2 and for the duration of the study. The administration route for IVP and CP is by mouth (PO).
# Beagle dogs [1] = test: Pioglitazone started 2 weeks before HFD to prevent metabolic dysfunction; OGTT and HIEG clamp (Example 5); type: in vivo, dog
# Source text: The purpose of this study was to assess the impact of pioglitazone on HFD-induced insulin resistance, hyperinsulinemia and fatty acid regulation in beagle dogs. We hypothesized that administration of pioglitazone to HFD-fed, metabolically dysfunctional dogs would (1) upregulate adiponectin levels (2) protect whole body insulin sensitivity as measured by an oral glucose tolerance test (OGTT) and hyperinsulinemic euglycemic clamp (HIEG) and (3) prevent increased deleterious fatty acid levels in the face of a HFD.
# Study Design: Twenty four animals (between 1 and 2 years old) were acclimated for at least 2 weeks and surgically implanted with a femoral artery catheter under anesthesia. 2 baseline tests were performed before any treatment: an OGTT and a HIEG clamp.
# The dogs were then randomly assigned to one of 3 groups: a placebo group (n=8) that received an empty capsule daily, a group that received 1 mg/kg pioglitazone in the form of a 15 mg pill (Dose 1, n=8), a group that received 2 mg/kg pioglitazone in the form of […] (Dose 2, n=8). Pioglitazone pills (Actos, Teva Pharmaceuticals, NJ) were given daily immediately before feeding and flushed with 5 mL of water.
# Two weeks after the treatment started, all the animals were put on a HFD (Research Diet 5SQ1, Test Diet from Purina). On Day 46 and 56 after the start of the pioglitazone treatment, the animals were given an OGTT and a HIEG clamp respectively to compare to their baseline metabolic response. On day 46 and 56, placebo and pioglitazone were given one hour before the gavage and one hour before the start of the somatostatin infusion. The same amount of glucose as the initial OGTT study was given and the same rate of insulin and hormone was given during the clamp despite the gain weight of the animal, because we know that the animals mainly gain fat, a tissue that is unresponsive to the level of insulin.
# Additionally, every 2 weeks, blood was harvested from each animal for multiple chemical measurements (Adiponectin, Superchem panel (performed by Antech Diagnostics)) before pioglitazone administration and feeding. Pioglitazone was also measured every 2 weeks in the serum, harvested 1 hour after pill administration and feeding.
# dogs [2] = settings: cited from earlier work
# dogs [3] = settings: 12 weeks; oral 30, 60, 150 mg/kg/day; cited from earlier work
# dogs [4] = settings: dog, in vivo, cited from earlier work
# Beagle dogs [5] = system: Beagle dogs
# Procedure: This 17-week HFD design, metabolic reversal study was conducted on 4 groups of 12 Beagle dogs each. All dogs included in the study were males, aged 3-7 years, weighing 12.05-22.95 kg. After 63 days (9 weeks) of normal diet or HFD-feeding, Placebo was administered daily by mouth to Groups 1 and 2 while pioglitazone was administered daily by mouth to Groups 3 and 4.
# Animals were fed their daily food ration (g) as a split ration. Each feeding (AM or PM) consisted of approximately half the animal's daily food ration and was offered approximately 4 hours apart. Dogs were given approximately 2 hours to consume each ration and any remaining food was weighed back for each feeding.
# All dogs were fed ad libitum “normal diet” (ND) consisting of 55% fat for all baseline measurements prior to study start. Prior to the study start, dogs were randomly assigned to either ND or HFD consisting of 74% fat, on which they remained for approximately 9 weeks. After 9 weeks, HFD-fed animals were further randomized to treatment groups prior to dosing based on fasting insulin levels as the primary factor and total body weight as the secondary factor. Dogs in the ND group were continued on ND through the conclusion of the study. Blood collections for Chemistry, Haematology, Triglycerides, Cholesterol, Metabolomics and Lipidomics, efficacy Biomarkers (Adiponectin, Fasting Insulin, and Leptin), pioglitazone pharmacokinetics, Cytokines (IL-6 and TNFa) and Non-esterified fatty acids (NEFA) were performed throughout the study to assess the diet and drug-related effects on markers of safety and metabolic function. Baseline (Day −56) and Pre-Treatment (Day 0) readings of each parameter were compared to Treatment (Day 57) readings.
# OGTTs were performed during the Pre-Treatment (Day −14) and Treatment (Day 42) phases to assess glucose and insulin kinetics and insulin sensitivity. OGTTs were carried out as previously described by Coate et al., 2010. Briefly, dogs were fasting overnight prior to conducting the procedure. Blood was sampled and serum and plasma separated at −20 and 0 minutes pre-glucose bolus to establish fasting glucose and insulin values. At 0 minutes (t=0), a glucose bolus (0.9 g/kg, p.o.) was delivered. Blood was collected at 5, 10, 20, 30, 40, 50, 60, 70, 80, 90, 120, 180 and 240 minutes post-glucose bolus. Serum was then analyzed for glucose and plasma was analyzed for insulin levels at each time point.
# Dogs were fasted for a minimum of 12 hours prior to the first blood draw of each sampling day. D2O and ^2H2^18O were prepared with autoclaved glassware and utensils, weighed out separately, and drawn into separate syringes. Body weights were taken the day of sampling and prepared D2O and ^2H2^18O were drawn into separate syringes per animal and weighed to the third decimal place prior to administration. Two milliliters (mL) of blood was collected prior to administration of 50 mg/kg of 99% D2O and 150 mg/kg of 97% ^2H2^18O via oral syringe. Blood samples were then collected at 2 h, 24 h, 72 h, 120 h and 168 h after initial D2O+^2H2^18O administration. Following collection, blood was plasma separated in K2EDTA tubes and were stored at −80° C. until analysis.
# Individual and summary statistics, arithmetic means, percentage change and within and between group comparisons were done.
# Subjects were administered Pioglitazone treatment, and fatty acids analysis was performed from blood samples of subjects. Fatty acids were detected and analyzed by species and quantified. Additionally, the effects of Pioglitazone on each different species of fatty acids were analyzed, as shown in FIG. 6B (Palmitic Acid), FIG. 6C (Linoleic Acid), and FIG. 6D (Oleic Acid).
# [6] = subjects 001-SAR-007 and 003-BAK-018
# [7] = beagle dogs on HFD, both doses, Day 56, excluding 4 dogs with non-comparable insulins
# [8] = beagle dogs on HFD, clamp experiments
# [9] = HFD-fed Beagle dogs, 1 or 2 mg/kg/day by mouth
# [10] = HFD-fed Beagle dogs, vs HFD-fed placebo group
smiles,measurement,setting,value
CCc1ccc(CCOc2ccc(CC3SC(=O)NC3=O)cc2)nc1.Cl (stereo not shown) [pioglitazone],TBili,"client-owned dogs; Subject 001-SAR-007, less than one month after starting, screening 0.5",0.2 mg/dL
same,insulin,"client-owned dogs; Subject 001-SAR-007, less than one month after starting, screening 76.8, reference range 5.2-41.5",16.2 uIU/mL
same,ALP,"client-owned dogs; Subject 001-SAR-007, less than one month after starting, screening 177, reference range 5-160",88 U/L
same,AST,"client-owned dogs; Subject 001-SAR-007, less than one month after starting, screening 182, reference range 16-55",22 U/L
same,ALT,"client-owned dogs; Subject 001-SAR-007, less than one month after starting, screening 469, reference range 18-121",48 U/L
same,ALP,"client-owned dogs; Subject 003-BAK-016, screening 241 U/L, reference range 5-160 U/L",remained elevated
same,insulin,"client-owned dogs; Subject 003-BAK-016, subsequent visits before visit 6, screening 96.6, reference range 5.2-41.5",62.2 uIU/mL and 52.9 uIU/mL
same,insulin,"client-owned dogs; Subject 003-BAK-016, visit 6, 90 days later, screening 96.6",42.3 uIU/mL
same,insulin,"client-owned dogs; Subject 003-BAK-018, visit 4 (approximately day 30), screening 66.3, reference range 5.2-41.5",15.3 uIU/mL
same,ALP,"client-owned dogs; Subject 003-BAK-018, visit 4 (approximately day 30), screening 1603, reference range 5-160",774 U/L
same,liver enzymes,client-owned dogs; all 3 dogs with elevated baseline insulin,reduction in liver enzymes
same,average reduction in insulin levels,"client-owned dogs; client-owned dogs, baseline to day 90, not statistically significant (p=0.538)",2.35 uIU/mL
same,average reductions in insulin levels compared with control group,"client-owned dogs; client-owned dogs, p=0.171",trending lower
same,gross lipemia in the blood samples,client-owned dogs; [6],eliminating gross lipemia
same,triglycerides,client-owned dogs; [6],reduction or normalization
same,insulin levels in dogs with elevated baseline insulin levels,client-owned dogs; three pioglitazone-treated dogs,notable effect
same,insulin response during the OGTT,"Beagle dogs [1]; beagle dogs on HFD, 1 mg/kg and 2 mg/kg daily, Day 46",reduced compared to the placebo group
same,glucose metabolism,"Beagle dogs [1]; beagle dogs on HFD, OGTT",normalize glucose metabolism without increasing insulin secretion
same,"GIR (glucose infusion rate), HIEG clamp",Beagle dogs [1]; [7],able to overcome the defect
same,"Rd (rate of glucose disappearance), HIEG clamp",Beagle dogs [1]; [7],able to overcome the defect
same,fasting FFA levels,Beagle dogs [1]; [8],reduced
same,inhibition of lipolysis,Beagle dogs [1]; [8],improved
same,circulating adiponectin,"Beagle dogs [1]; beagle dogs, 1 mg/kg and 2 mg/kg daily, by Day 14, vs placebo group",significant increase; also recorded: larger and more sustained than in the placebo group
same,nontoxic dose,"dogs [2]; 26 weeks, oral 0, 1, 3, 10 mg/kg/day",be 3 mg/kg/day.
same,hydropericardium,"dogs [2]; dog, in vivo, 10 mg/kg",hydroperi-
same,leukocytes,"dogs [2]; dog, in vivo, 10 mg/kg",increase in platelet and leukocytes
same,platelet,"dogs [2]; dog, in vivo, 10 mg/kg",increase in platelet and leukocytes
same,frequency of clinical signs,dogs [3],The frequency appeared dose-dependent.
same,serum albumin,dogs [4]; 10 mg/kg/day,Decrease in serum albumin and protein
same,serum protein,dogs [4]; 10 mg/kg/day,Decrease in serum albumin and protein
same,hematocrit,dogs [4]; 10 mg/kg,Reduction in hematocrit in both sexes
same,caloric intake,Beagle dogs [5]; HFD-fed Beagle dogs,without any effects
same,food consumption,Beagle dogs [5]; HFD-fed Beagle dogs,without any effects
same,leptin levels,Beagle dogs [5]; HFD-fed Beagle dogs,without any effects
same,HFD-induced elevation of SFA,Beagle dogs [5]; [9],reversed HFD-induced elevation of SFA
same,palmitic acid,Beagle dogs [5]; [9],decreases in palmitic acid
same,"levels of metabolically deleterious fatty acids (SFAs, palmitic acid, linoleic acid, oleic acid)","Beagle dogs [5]; HFD-fed Beagle dogs, 1 or 2 mg/kg/day by mouth, GC-MS",dose dependently regulates
same,glucose excursion during glucose tolerance test,"Beagle dogs [5]; HFD-fed Beagle dogs, 1 or 2 mg/kg/day by mouth, OGTT Day 42",no impact
same,adiponectin,"Beagle dogs [5]; HFD-fed Beagle dogs, 1 or 2 mg/kg/day by mouth, biomarker of target engagement",significantly upregulates
same,fasting glucose measurements,"Beagle dogs [5]; HFD-fed Beagle dogs, pioglitazone 1 or 2 mg/kg/day by mouth after 9 weeks HFD",no impact
same,size of adipocytes in the viscera (histological examination),"Beagle dogs [5]; HFD-fed Beagle dogs, visceral and subcutaneous adipose tissue",decreased the size of adipocytes in the viscera
same,body composition: fat mass,Beagle dogs [5]; [10],increases in fat mass
same,circulating cholesterol,Beagle dogs [5]; [10],significantly reduced
same,circulating triglycerides,Beagle dogs [5]; [10],significantly reduced
same,fatty acid profiles,Beagle dogs [5]; [10],normalized detrimental fatty acid profiles
same,tolerability of administration,"Beagle dogs [5]; dog, in vivo",tolerated Placebo/pioglitazone administration well
